Tested on: 292921-168-R-J2-PDC complex spheroid growth
Test: Anticancer human tumor 292921-168-R-J2-PDC patient-derived pancreatic carcinoma cell line growth inhibition [AhR]
Conditions: for IC50: curve of first compound; for viability, T/C: stronger effect = lower value
Text: Multicellular complex tumor spheroid response to aryl hydrocarbon receptor antagonists in combination with a variety of drugs and investigational agents in selected tumor cell lines
The current study was undertaken to assess response to aryl hydrocarbon receptor antagonists in combination with standard-of-care drugs and investigational agents in solid tumor complex spheroid models. Complex spheroids include a stromal component modeled by human endothelial cells (HUVEC) and fibroblasts modeled by human mesenchymal stem cells (MSCs). The concentration ranges selected for each drug and investigational agent were based upon clinically achievable concentrations if the clinical Cmax of the agent was known.
Compounds. The drugs and investigational agents: BAY 2416964 (NSC825713), GNF351 (NSC835774), CH-223191 (NSC835775), CPI-455 (NSC825282), aza-TdCyd (NSC777586), decitabine (NSC127716), belinostat (NSC758774), entinostat (NSC756642), pevonedistat (NSC761192), tazemetostat (NSC777109), talazoparib (NSC765396), olaparib (NSC753686), selinexor (NSC780203), nedisertib (M3814, NSC802822), bortezomib (NSC756655), venetoclax (NSC766270), doxorubicin (NSC123127), elimusertib (BAY189344, NSC800525), ceralasertib (AZD6738, NSC777638), TAK-243 (NSC785004), alisertib (NSC759677), etoposide (NSC141540), topotecan (NSC609699), eribulin (NSC707389), gemcitabine (NSC613327), carboplatin (NSC241240), cisplatin (NSC119875), and SN-38 (NSC673596) were obtained from the National Cancer Institute (NCI) Developmental Therapeutics Program Chemical Repository (32). The FDA-approved anticancer drug set is available from the Developmental Therapeutics Program at https://dtp.cancer.gov/organization/dscb/obtaining/available plates.htm. […] The stock solutions were prepared in dimethyl sulfoxide (DMSO, Sigma-Aldrich, St. Louis, MO, cat. D2650), except for the platinum compounds which were prepared in saline (Quality Biological, Gaithersburg, MD, cat. 114-055-101), at 800-fold the tested concentration and stored at -70 degrees C prior to their use. All drugs and investigational agents were tested over a range starting from a high concentration at or near the clinical Cmax and decreasing in half-log increments. If the clinical Cmax for an agent had not been determined, the highest concentration tested was 10 microM (Table 1).
Cell Culture. All cells were maintained in an incubator at 37 degrees C and 5% CO2 with 95% humidity. The PDC lines were cultured according to standard operating procedures established by the NCI PDMR (https://pdmr.cancer.gov). Briefly, all PDCs were thawed and cultured in Matrigel-coated flasks prepared with a working solution of 1X Ham's F-12 nutrient mix, without supplementation (Invitrogen, Waltham, MA, cat. 11765054), 100 U/mL penicillin-streptomycin (Invitrogen, cat. 15140122), and 2.5% Matrigel (Corning Inc., Corning, NY, cat. 354248) for the first three passages. All PDCs were cultured in complete DMEM/F-12 media containing advanced DMEM/F-12 (Invitrogen, cat. 12634028), 4.9% defined fetal bovine serum, heat inactivated (HyClone Laboratories Inc., Logan, UT, cat. SH30070.03HI), 389 ng/mL hydrocortisone (Sigma-Aldrich, cat. H4001), 9.7 ng/mL human EGF recombinant protein (Invitrogen, cat. PHG0313), 23.4 microg/mL adenine (Sigma-Aldrich, cat. A2786), 97.3 U/mL penicillin-streptomycin (Invitrogen, cat. 15140122), 1.9 mM L-glutamine (Invitrogen, cat. 25030081), and 9.7 microM Y-27632 dihydrochloride (Tocris Bioscience, Bristol, United Kingdom, cat. 1254). The PDCs were cultured in complete DMEM/F12 media without 10 microM Y-27632 dihydrochloride for at least two passages prior to the screen. The established cell lines NCI-H1341 and […] were cultured in DMEM/F-12, HEPES (Invitrogen, cat. 11330032), 5% defined fetal bovine serum (HyClone Laboratories Inc., cat. SH30070.03), ITS premix universal culture supplement [insulin (5 microg/mL), transferrin (5 microg/mL), and selenious acid (5 ng/mL)] […]

[1] = second compound 0.1 µM, first compound 0.0316 µM
[2] = second compound 0.1 µM, first compound 0.1 µM
[3] = second compound 0.1 µM, first compound 0.316 µM
[4] = second compound 0.1 µM, first compound 1 µM
[5] = second compound 0.1 µM, first compound 3.16 µM
[6] = second compound 0.1 µM, first compound 10 µM
[7] = second compound 0.316 µM, first compound 0.0316 µM
[8] = second compound 0.316 µM, first compound 0.1 µM
[9] = second compound 0.316 µM, first compound 0.316 µM
[10] = second compound 0.316 µM, first compound 1 µM
[11] = second compound 0.316 µM, first compound 3.16 µM
[12] = second compound 0.316 µM, first compound 10 µM
[13] = second compound 1 µM, first compound 0.0316 µM
[14] = second compound 1 µM, first compound 0.1 µM
[15] = second compound 1 µM, first compound 0.316 µM
[16] = second compound 1 µM, first compound 1 µM
[17] = second compound 1 µM, first compound 3.16 µM
[18] = second compound 1 µM, first compound 10 µM
[19] = second compound 3.16 µM, first compound 0.0316 µM
[20] = second compound 3.16 µM, first compound 0.1 µM
[21] = second compound 3.16 µM, first compound 0.316 µM
[22] = second compound 3.16 µM, first compound 1 µM
[23] = second compound 3.16 µM, first compound 3.16 µM
[24] = second compound 3.16 µM, first compound 10 µM
[25] = second compound 10 µM, first compound 0.0316 µM
[26] = second compound 10 µM, first compound 0.1 µM
[27] = second compound 10 µM, first compound 0.316 µM
[28] = second compound 10 µM, first compound 1 µM
[29] = second compound 10 µM, first compound 3.16 µM
[30] = second compound 10 µM, first compound 10 µM
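Note: spheroids exposed to compounds for seven days after three days of growth.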

| Compound | IC50 (second compound 0.1 µM) [nM] | IC50 (second compound 0.316 µM) [nM] | IC50 (second compound 1 µM) [nM] | IC50 (second compound 3.16 µM) [nM] | IC50 (second compound 10 µM) [nM] | viability, T/C [1] [%] | viability, T/C [2] [%] | viability, T/C [3] [%] | viability, T/C [4] [%] | viability, T/C [5] [%] | viability, T/C [6] [%] | viability, T/C [7] [%] | viability, T/C [8] [%] | viability, T/C [9] [%] | viability, T/C [10] [%] | viability, T/C [11] [%] | viability, T/C [12] [%] | viability, T/C [13] [%] | viability, T/C [14] [%] | viability, T/C [15] [%] | other results |
| --- | --- | --- | --- | --- | --- | --- | --- | --- | --- | --- | --- | --- | --- | --- | --- | --- | --- | --- | --- | --- | --- |
| Nc1ccccc1NC(=O)c1ccc(CNC(=O)OCc2cccnc2)cc1 + CC(CO)NC(=O)c1cc(-c2ccc(Cl)cc2)nn(-c2cnn(C)c2)c1=O | 190 | 148 | 195 | 116 | < 31.6 | 67.5 | 58.8 | 43 | 31 | 25.5 | 9.72 | 69 | 51.2 | 44.3 | 28.1 | 23.7 | 10.4 | 66.6 | 60.7 | 43.4 | viability, T/C [16]: 25.4%; viability, T/C [17]: 23.7%; viability, T/C [18]: 9.21%; viability, T/C [19]: 60.8%; viability, T/C [20]: 51.1%; viability, T/C [21]: 43.3%; viability, T/C [22]: 23.1%; viability, T/C [23]: 22.7%; viability, T/C [24]: 8.28%; viability, T/C [25]: 45.9%; viability, T/C [26]: 40.5%; viability, T/C [27]: 32.9%; viability, T/C [28]: 19.4%; viability, T/C [29]: 18.1%; viability, T/C [30]: 5.12% |
| O=C(c1cc(Cc2n[nH]c(=O)c3ccccc23)ccc1F)N1CCN(C(=O)C2CC2)CC1 + CC(CO)NC(=O)c1cc(-c2ccc(Cl)cc2)nn(-c2cnn(C)c2)c1=O | > 10000 | > 10000 | > 10000 | > 10000 | > 10000 | 100 | 96.1 | 92.4 | 98.8 | 78.4 | 64 | 97.4 | 98.4 | 99.4 | 90.1 | 74.3 | 66.7 | 90.3 | 103 | 94.7 | viability, T/C [16]: 90.2%; viability, T/C [17]: 78.2%; viability, T/C [18]: 66.2%; viability, T/C [19]: 85.9%; viability, T/C [20]: 86%; viability, T/C [21]: 81.8%; viability, T/C [22]: 83.7%; viability, T/C [23]: 70.8%; viability, T/C [24]: 55.9%; viability, T/C [25]: 67.5%; viability, T/C [26]: 62.8%; viability, T/C [27]: 67.1%; viability, T/C [28]: 63.4%; viability, T/C [29]: 56.6%; viability, T/C [30]: 49% |

From PubChem BioAssay AID1918994 (Molecular Pharmacology Branch, DTP, NCI, 2023)
